Reference: US9873709B2 (priority 2013, dated 2018)
Counter-ions that a name gives are not always drawn. Like-named read-outs stand apart in the source and are kept apart here.

Legend:
[1] = target: isolated recombinant JAK2 kinase domain (Homo sapiens (Human), UniProt O60674); conditions: read-out: JAK2 Ki
[2] = tested on: JAK1-dependent STAT6 phosphorylation downstream of IL-13 stimulation in TF-1 human erythroleukemia cells; test: cells; conditions: TF-1, read-out: IL-13-pSTAT6 IC50
[3] = isolated recombinant JAK2 kinase domain, 25 μM ATP

Chain of isolated recombinant JAK2 kinase domain (O60674 849-1124): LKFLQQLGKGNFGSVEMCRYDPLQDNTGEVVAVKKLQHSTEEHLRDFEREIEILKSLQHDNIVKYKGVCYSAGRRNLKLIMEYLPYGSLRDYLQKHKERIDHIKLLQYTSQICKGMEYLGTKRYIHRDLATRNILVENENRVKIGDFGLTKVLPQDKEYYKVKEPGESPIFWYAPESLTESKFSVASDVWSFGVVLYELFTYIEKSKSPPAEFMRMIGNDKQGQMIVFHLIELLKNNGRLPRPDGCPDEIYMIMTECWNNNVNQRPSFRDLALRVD

SMILES | Ki [1, 3] | IC50 [2] | Ki [1]
COC1(c2ccccc2)CCN(c2cccn3nc(Nc4ccc(C(=O)N(C)C5CCN(C)CC5)cc4)nc23)CC1 [Example 1-5, 4-[[8-(4-methoxy-4-phenyl-1-piperidyl)-[1,2,4]triazolo[1,5-a]pyridin-2-yl]amino]-N-methyl-N-(1-methyl-4-piperidyl)benzamide; hydrochloride] | 5.15 nM | 767 nM | 
COC1CCN(c2cccn3nc(Nc4ccc(C(=O)N(C)C5CCN(C)CC5)cc4)nc23)CC1 [Example 1-8, 4-[[8-(4-methoxy-1-piperidyl)-[1,2,4]triazolo[1,5-a]pyridin-2-yl]amino]-N-methyl-N-(1-methyl-4-piperidyl)benzamide] | 23.1 nM | 756 nM | 
CN1CCC(N(C)C(=O)c2ccc(Nc3nc4c(N5CCC(O)(c6ccc(C#N)cc6)CC5)cccn4n3)cc2)CC1 [Example 1-21, 4-[[8-[4-(4-cyanophenyl)-4-hydroxy-1-piperidyl]-[1,2,4]triazolo[1,5-a]pyridin-2-yl]amino]-N-methyl-N-(1-methyl-4-piperidyl)benzamide] | 6.49 nM | 333 nM | 
CN1CCC(N(C)C(=O)c2ccc(Nc3nc4c(N5CCC(OCC#N)CC5)cccn4n3)cc2)CC1 [Example 1-23, 4-[[8-[4-(cyanomethoxy)-1-piperidyl]-[1,2,4]triazolo[1,5-a]pyridin-2-yl]amino]-N-methyl-N-(1-methyl-4-piperidyl)benzamide] | 2.5 nM | 73.7 nM | 
CN1CCC(N(C)C(=O)c2ccc(Nc3nc4c(N5CCC(CC(N)=O)(c6ccccc6)CC5)cccn4n3)cc2)CC1 [Example 1-30, 4-[[8-[4-(2-amino-2-oxo-ethyl)-4-phenyl-1-piperidyl]-[1,2,4]triazolo[1,5-a]pyridin-2-yl]amino]-N-methyl-N-(1-methyl-4-piperidyl)benzamide] | 0.27 nM | 252 nM | 
CN1CCC(N(C)C(=O)c2ccc(Nc3nc4c(N5CCN(C(=O)N6CC(C)(C)C6)CC5)cccn4n3)cc2)CC1 [Example 1-34, 4-[[8-[4-(3,3-dimethylazetidine-1-carbonyl)piperazin-1-yl]-[1,2,4]triazolo[1,5-a]pyridin-2-yl]amino]-N-methyl-N-(1-methyl-4-piperidyl)benzamide] | 8.61 nM | 916 nM | 
CCc1ccc(C2(O)CCN(c3cccn4nc(Nc5ccc(C(=O)N(C)C6CCN(C)CC6)cc5)nc34)CC2)cc1 [Example 1-36, 4-[[8-[4-(4-ethylphenyl)-4-hydroxy-1-piperidyl]-[1,2,4]triazolo[1,5-a]pyridin-2-yl]amino]-N-methyl-N-(1-methyl-4-piperidyl)benzamide] | 4.32 nM | 142 nM | 
COc1ccc(C2(O)CCN(c3cccn4nc(Nc5ccc(C(=O)N(C)C6CCN(C)CC6)cc5)nc34)CC2)cc1 [Example 1-40, 4-[[8-[4-hydroxy-4-(4-methoxyphenyl)-1-piperidyl]-[1,2,4]triazolo[1,5-a]pyridin-2-yl]amino]-N-methyl-N-(1-methyl-4-piperidyl)benzamide] | 4.58 nM |  | 
CN1CCC(N(C)C(=O)c2ccc(Nc3nc4c(N5CCC(C(=O)N6CC(C)(C)C6)CC5)cccn4n3)cc2)CC1 [Example 1-42, 4-{8-[4-(3,3-Dimethyl-azetidine-1-carbonyl)-piperidin-1-yl]-1,8a-dihydro [1,2,4]triazolo[1,5a]pyridine-2-ylamino}-N-methyl-N-(1-methyl-piperidin-4-yl)-benzamide] | 1090 nM |  | 
COCCOc1cc(COC2CCN(c3cccn4nc(Nc5ccc(C(=O)N(C)C6CCN(C)CC6)cc5)nc34)CC2)ccn1 [Example 1-44, 4-[[8-[4-[[2-(2-methoxyethoxy)-4-pyridyl]methoxy]-1-piperidyl]-[1,2,4]triazolo[1,5-a]pyridin-2-yl]amino]-N-methyl-N-(1-methyl-4-piperidyl)benzamide] | 7.03 nM | 168 nM | 
CN1CCC(N(C)C(=O)c2ccc(Nc3nc4c(N5CCC(C#N)(c6ccccc6)CC5)cccn4n3)cc2)CC1 [Example 1-45, 4-[[8-(4-cyano-4-phenyl-1-piperidyl)-[1,2,4]triazolo[1,5-a]pyridin-2-yl]amino]-N-methyl-N-(1-methyl-4-piperidyl)benzamide] | 20.4 nM |  | 
CN1CCC(N(C)C(=O)c2ccc(Nc3nc4c(N5CCc6ccccc6C5)cccn4n3)cc2)CC1 [Example 1-46, 4-[[8-(3,4-dihydro-1H-isoquinolin-2-yl)-[1,2,4]triazolo[1,5-a]pyridin-2-yl]amino]-N-methyl-N-(1-methyl-4-piperidyl)benzamide] | 10.1 nM |  | 
O=C(c1ccc(Nc2nc3c(N4CCC(O)(c5ccc(Cl)cc5)CC4)cccn3n2)cc1)N1CCN(c2ccccn2)CC1 [Example 1-112, [4-[[8-[4-(4-chlorophenyl)-4-hydroxy-1-piperidyl]-[1,2,4]triazolo[1,5-a]pyridin-2-yl]amino]phenyl]-[4-(2-pyridyl)piperazin-1-yl]methanone] | 3.8 nM |  | 
CN1CCN(C2CCN(C(=O)c3ccc(Nc4nc5c(N6CCC(O)(c7ccc(Cl)cc7)CC6)cccn5n4)cc3)CC2)CC1 [Example 1-117, [4-[[8-[4-(4-chlorophenyl)-4-hydroxy-1-piperidyl]-[1,2,4]triazolo[1,5-a]pyridin-2-yl]amino]phenyl]-[4-(4-methylpiperazin-1-yl)-1-piperidyl]methanone] | 0.85 nM | 29.2 nM | 
O=C(c1ccc(Nc2nc3c(N4CCC(O)(c5ccc(Cl)cc5)CC4)cccn3n2)cc1)N1CCN(Cc2cccnc2)CC1 [Example 1-123, [4-[[8-[4-(4-chlorophenyl)-4-hydroxy-1-piperidyl]-[1,2,4]triazolo[1,5-a]pyridin-2-yl]amino]phenyl]-[4-(3-pyridylmethyl)piperazin-1-yl]methanone] | 0.7 nM | 25.8 nM | 
CN1CCC(N(C)C(=O)c2ccc(Nc3nc4c(Oc5ccccc5)cccn4n3)cc2)CC1 [Example 1-248, N-Methyl-N-(1-methyl-piperidin-4-yl)-4-(8-phenoxy-[1,2,4]triazolo[1,5-a]pyridine-2-ylamino)-benzamide] |  |  | 22.1 nM
CN1CCC(N(C)C(=O)c2ccc(Nc3nc4c(N5CCC(CC#N)(C6CCCC6)CC5)cccn4n3)cc2)CC1 [Example 1-257, 4-([8-[4-(cyanomethyl)-4-cyclopentylpiperidin-1-yl]-[1,2,4]triazolo[1,5-a]pyridin-2-yl]amino)-N-methyl-N-(1-methylpiperidin-4-yl)benzamide] | 2.34 nM |  | 
CN1CCC(N(C)C(=O)c2ccc(Nc3nc4c(N5CCC(C)(C(=O)NCc6ccccc6)CC5)cccn4n3)cc2)CC1 [Example 1-259, N-benzyl-4-methyl-1-[2-[4-[methyl-(1-methyl-4-piperidyl)carbamoyl]anilino]-[1,2,4]triazolo[1,5-a]pyridin-8-yl]piperidine-4-carboxamide] | 10.7 nM |  | 
CC(=O)NC1(C)CCN(c2cccn3nc(Nc4ccc(C(=O)N(C)C5CCN(C)CC5)cc4)nc23)CC1 [Example 1-260, 4-[[8-(4-acetamido-4-methylpiperidin-1-yl)-[1,2,4]-triazolo[1,5-a]pyridin-2-yl]amino]-N-methyl-N-(1-methylpiperidin-4-yl)benzamide] | 16.3 nM |  | 
CN1CCC(N(C)C(=O)c2ccc(Nc3nc4c(N5CCC(C)(N(C)S(=O)(=O)c6ccccc6)CC5)cccn4n3)cc2)CC1 [Example 1-261] | 3.56 nM |  | 
CN1CCC(N(C)C(=O)c2ccc(Nc3nc4c(Oc5ccc6oc(=O)n(Cc7ccccc7)c6c5)cccn4n3)cc2)CC1 [Example 1-264, 4-([8-[(3-benzyl-2-oxo-2,3-dihydro-1,3-benzoxazol-5-yl)oxy]-[1,2,4]triazolo[1,5-a]pyridin-2-yl]amino)-N-methyl-N-(1-methylpiperidin-4-yl)benzamide] |  |  | 121 nM
CN1CCC(N(C)C(=O)c2ccc(Nc3nc4c(N5CCC(CO)(CNCC(F)(F)F)CC5)cccn4n3)cc2)CC1 [Example 1-266, 4-([8-[4-(hydroxymethyl)-4-[[(2,2,2-trifluoroethyl)amino]methyl]piperidin-1-yl]-[1,2,4]triazolo[1,5-a]pyridin-2-yl]amino)-N-methyl-N-(1-methylpiperidin-4-yl)benzamide] | 2.54 nM |  | 
CN1CCC(N(C)C(=O)c2ccc(Nc3nc4c(N5CCC(C(=O)O)(c6ccc(Cl)cc6)CC5)cccn4n3)cc2)CC1 [Example 1-269, 4-(4-chlorophenyl)-1-[2-([4-[methyl(1-methylpiperidin-4-yl)carbamoyl]phenyl]amino)-[1,2,4]-triazolo[1,5-a]pyridin-8-yl]piperidine-4-carboxylic acid] | 13.2 nM |  | 
CN1CCC(N(C)C(=O)c2ccc(Nc3nc4c(N5CC6CC5CN6Cc5ccccc5)cccn4n3)cc2)CC1 (stereo not shown) [Example 1-293, 4-[[8-(5-benzyl-2,5-diazabicyclo[2.2.1]heptan-2-yl)-[1,2,4]triazolo[1,5-a]pyridin-2-yl]amino]-N-methyl-N-(1-methyl-4-piperidyl)benzamide] | 110 nM |  | 
CN1CCC(N(C)C(=O)c2ccc(Nc3nc4c(N5CCC(C)(NC(=O)c6ccccc6)CC5)cccn4n3)cc2)CC1 [Example 1-302, 4-[[8-(4-benzamido-4-methyl-1-piperidyl)-[1,2,4]triazolo[1,5-a]pyridin-2-yl]amino]-N-methyl-N-(1-methyl-4-piperidyl)benzamide] | 6.37 nM |  | 
CN1CCC(N(C)C(=O)c2ccc(Nc3nc4c(N5CCC(C)(NS(=O)(=O)c6ccccc6)CC5)cccn4n3)cc2)CC1 [Example 1-303, 4-[[8-[4-(benzenesulfonamido)-4-methyl-1-piperidyl]-[1,2,4]triazolo[1,5-a]pyridin-2-yl]amino]-N-methyl-N-(1-methyl-4-piperidyl)benzamide] | 4.98 nM |  | 
NCC1(c2ccccc2)CCN(c2cccn3nc(NC(=O)C4CC4)nc23)CC1 [Example 3-1, N-[8-[4-(aminomethyl)-4-phenyl-1-piperidyl]-[1,2,4]triazolo[1,5-a]pyridin-2-yl]cyclopropane carboxamide; hydrochloride] | 145 nM |  | 
